Among the test systems are K-562 leukemia; HCC-2998 colon; MCF7 breast; RXF 393 renal; DU-145 prostate; RPMI-8226 leukemia; OVCAR-8 ovarian; HCT-15 colon; SF-295 CNS; HCT-116 colon.
Holding throughout (assay): inhibition of tumour cell growth, NCI panel, 48 h

We go through eight molecules from PubChem BioAssay (NCI).

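1) Cells in 96-well plates. 2) Compound, 48 h, 5 concentrations. 3) Linear interpolation between surrounding doses. 4) Unreached endpoint = highest concentration. GI50 = concentration required for 50% inhibition of growth. TGI: concentration producing complete growth inhibition.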 Bounds are passed on as bounds.

With `CCCCCCc1cc2cc(-c3nc4ccccc4[nH]3)c(=Nc3ccccc3C)oc2cc1O`, the GI50 was 3.1 µM in the assay on K-562 leukemia; 22.2 µM with HCC-2998 colon; 2.24 µM with MCF7 breast; 1.85 µM with RXF 393 renal; 2.96 µM in the assay with DU-145 prostate; 2.47 µM in the assay with RPMI-8226 leukemia. Also, the GI50 in the assay with OVCAR-8 ovarian was 2.26 µM; with HCT-15 colon, 2.17 µM; in the assay with SF-295 CNS, 4.24 µM; in the assay on HCT-116 colon, 1.83 µM. The TGI is 9.29 µM in the assay on K-562 leukemia; > 77.3 µM in the assay on HCC-2998 colon; > 23.8 µM in the assay with MCF7 breast; 3.95 µM in the assay with RXF 393 renal; 7.77 µM in the assay with DU-145 prostate; 7.86 µM with RPMI-8226 leukemia. Further, the TGI with OVCAR-8 ovarian turned out to be 6.05 µM; in the assay with HCT-15 colon, 5.34 µM; with SF-295 CNS it was 17.8 µM; in the assay with HCT-116 colon it was 3.63 µM.

Take `CCN1/C(=C/C=C/c2n(-c3ccccc3)c3ccc(-c4nc5ccccc5s4)cc3[n+]2CC)N(c2ccccc2)c2ccc(-c3nc4ccccc4s3)cc21`: the GI50 was 0.471 µM in the assay with K-562 leukemia; 1.69 µM with HCC-2998 colon; 0.426 µM in the assay with MCF7 breast; 0.563 µM in the assay on RXF 393 renal; 0.374 µM in the assay with DU-145 prostate; 0.303 µM with RPMI-8226 leukemia. For the same molecule, the results for the GI50 in the assay on OVCAR-8 ovarian, with HCT-15 colon and in the assay with HCT-116 colon were 0.304 µM, 1 µM and 0.436 µM, respectively. In addition, the TGI with K-562 leukemia is > 50 µM; with HCC-2998 colon, > 31.1 µM; in the assay on MCF7 breast it was > 50 µM; in the assay on RXF 393 renal, 7.37 µM; with DU-145 prostate, 2.49 µM; in the assay with RPMI-8226 leukemia, > 50 µM. In addition, the TGI in the assay with OVCAR-8 ovarian is 5.82 µM; in the assay on HCT-15 colon, > 50 µM; in the assay on HCT-116 colon, > 50 µM.

For the molecule `Nc1ccccc1-c1ccc([N+](=O)[O-])cc1`, the GI50 was 1.32 µM in the assay with K-562 leukemia; 2.25 µM in the assay on HCC-2998 colon; 35 µM in the assay on MCF7 breast; 55.9 µM in the assay on RXF 393 renal; 73.1 µM in the assay on DU-145 prostate; 4.95 µM in the assay with RPMI-8226 leukemia. Moreover, the GI50 in the assay on OVCAR-8 ovarian was 63.4 µM; in the assay with HCT-15 colon, 14.3 µM; with SF-295 CNS, 2.18 µM; in the assay on HCT-116 colon, 3.4 µM. Besides, the TGI in the assay with K-562 leukemia was > 100 µM; with HCC-2998 colon, 8.54 µM; with MCF7 breast it was > 100 µM; in the assay with RXF 393 renal, > 100 µM; in the assay on DU-145 prostate, > 100 µM; in the assay on RPMI-8226 leukemia, > 100 µM. Also, the TGI in the assay on OVCAR-8 ovarian is > 100 µM; with HCT-15 colon, > 100 µM; in the assay with SF-295 CNS, 64.8 µM; in the assay on HCT-116 colon, > 100 µM.

With `Cn1ccnc1C(=O)/C=C/c1ccc(C(=O)Nc2ccc(S(F)(F)(F)(F)F)cc2)cc1`, the GI50 was 0.385 µM in the assay with K-562 leukemia; 2.93 µM with HCC-2998 colon; 0.481 µM in the assay on MCF7 breast; 2.65 µM in the assay on RXF 393 renal; 2.41 µM with DU-145 prostate; 0.38 µM with RPMI-8226 leukemia. The GI50 is 2.03 µM in the assay with OVCAR-8 ovarian, 0.799 µM in the assay with HCT-15 colon, 1.62 µM in the assay on SF-295 CNS and 0.854 µM with HCT-116 colon. Further, the TGI in the assay with K-562 leukemia is > 14.3 µM; in the assay on HCC-2998 colon it was > 14.3 µM; in the assay with MCF7 breast, > 14.3 µM; with RXF 393 renal it was 13.9 µM; in the assay on DU-145 prostate, > 14.3 µM; with RPMI-8226 leukemia it was 2.68 µM. In addition, the TGI with OVCAR-8 ovarian is > 14.3 µM; in the assay on HCT-15 colon, 4.92 µM; in the assay on SF-295 CNS it was > 14.3 µM; with HCT-116 colon, > 14.3 µM.

Take `Fc1ccc(-c2nn3c(-c4ccc(F)c(Cl)c4)nnc3s2)cc1`: the GI50 in the assay with K-562 leukemia is 34.3 µM; in the assay on HCC-2998 colon, > 50 µM; in the assay with MCF7 breast, 30.3 µM; in the assay on RXF 393 renal it was 0.688 µM; with DU-145 prostate, 36.3 µM; in the assay on RPMI-8226 leukemia, 22.8 µM. The GI50 in the assay with OVCAR-8 ovarian was 37.1 µM; in the assay with HCT-15 colon, 22.7 µM; with SF-295 CNS it was 18.2 µM; in the assay on HCT-116 colon it was 21.6 µM. Moreover, the TGI in the assay with K-562 leukemia was > 50 µM; in the assay with HCC-2998 colon, > 50 µM; in the assay with MCF7 breast, > 50 µM; in the assay on RXF 393 renal it was 18.7 µM; with DU-145 prostate, > 50 µM; in the assay with RPMI-8226 leukemia, > 50 µM. In addition, the TGI in the assay on OVCAR-8 ovarian, in the assay with HCT-15 colon, in the assay with SF-295 CNS and with HCT-116 colon was > 50 µM in each case.

On to `CC(C)Nc1ccc(Nc2ccccc2)cc1`, for which the GI50 is 15.6 µM with K-562 leukemia; 25.3 µM in the assay on HCC-2998 colon; 11.1 µM in the assay on MCF7 breast; 8.81 µM in the assay with RXF 393 renal; 26.2 µM with DU-145 prostate; 3.68 µM with RPMI-8226 leukemia. The results for the GI50 in the assay with OVCAR-8 ovarian, with HCT-15 colon and with HCT-116 colon were 11.6 µM, 21.5 µM and 14.1 µM, respectively. Further, the TGI was 52.5 µM in the assay on K-562 leukemia; > 100 µM with HCC-2998 colon; 31.9 µM in the assay on MCF7 breast; 24.6 µM in the assay on RXF 393 renal; > 100 µM with DU-145 prostate; 19.5 µM in the assay with RPMI-8226 leukemia. Also, the values for the TGI with OVCAR-8 ovarian, with HCT-15 colon and in the assay with HCT-116 colon were 26.5 µM, 77 µM and 31.4 µM, respectively.

Consider `Cc1cc(Cl)cc2c(N=Nc3ccccc3[N+](=O)[O-])c(O)[nH]c12`, for which the TGI in the assay with K-562 leukemia, with HCC-2998 colon, with MCF7 breast, with RXF 393 renal, with DU-145 prostate and with RPMI-8226 leukemia was > 100 µM each time. Besides, the TGI with HCT-15 colon, in the assay with SF-295 CNS and in the assay with HCT-116 colon was > 100 µM each time.

With `COc1ccc2c(c1O)C13CCN(C)C(C2)C1CCC1(C3)OCCO1` (centres undefined), the TGI with HCC-2998 colon, in the assay with MCF7 breast, in the assay with RXF 393 renal, in the assay with DU-145 prostate, with RPMI-8226 leukemia and with OVCAR-8 ovarian was > 100 µM each time. Further, the TGI in the assay on HCT-15 colon, with SF-295 CNS and with HCT-116 colon was > 100 µM in each case.
